# Test results published in patent US20080081781A1, “Methods and compositions for the treatment of metabolic syndrome” (priority 2004, published 2008).
# Like-named read-outs stand apart in the source and are kept apart here.
# Legend:
# [1] = test system: LDLR; assay: Hamster liver LDLR mRNA and protein expression (real-time RT-PCR, western blot); format: in vivo, Chinese hamster; details: 100 mg/kg/day of berberine, end of treatment
# Experimental: Two weeks prior to treatment, female Chinese hamsters purchased from the National Institute of Vaccine and Serum research (Beijing, China) were switched to a high fat and cholesterol diet (10% lard, 10% egg yolk powder and 1% cholesterol). After two weeks, groups of 14 hamsters were given either 10 mg/kg/day of berberine through peritoneal injection, 20 mg/kg/day of berberine through peritoneal injection, 50 mg/kg/day, 100 mg/kg/day of berberine orally or saline for ten days. Serum cholesterol, triglyceride and LDL levels were measured after 4 h fasting before, during and after the course of the treatment. Four hours after the course of the treatment, the animals were sacrificed and their livers removed for analysis.
# At the end of treatment, three animals from each group were killed and liver LDLR mRNA and protein expressions were examined by quantitative real-time RT-PCR and western blot analysis. For the real-time RT-PCR, reverse transcription with random primers using Superscript II at 42° C. for 30 minutes with 1 μg of total RNA was performed using the ABI Prism 7900-HT Sequence Detection System and Universal MasterMix (Applied Biosystems, Foster City, Calif.). LDLR and GAPD mRNA expression levels were determined using the human LDLR and GAPD Pre-developed TaqMan Assay Reagents (Applied Biosystems).
# [2] = test system: patients with type 2 diabetes; format: in vivo, human
# From the text: Ninety-seven hyperglycemic patients (54 males and 43 females) with fasting blood glucose>7 mmol/L and post-prandial blood glucose>11.1 mmol/L were enrolled in a study at the Nanjing First Hospital in Nanjing, China. The patients were asked to end any current treatments for hyperglycemia at least 2 weeks prior to commencement of the study.
# Fifty of the patients (male/female, 27/23; age 57±8y) were randomly assigned to be given 0.5 gram twice a day (1g/day total) of berberine (Nanjing Second Pharmaceutics, Inc., Nanjing, China), orally for 2 months. Out of these 50 patients, 25 had hyperlipidemia, 9 had hypertension and 2 had cardiovascular disease. Twenty-six patients (male/female, 15/11; age 56±11 y) were given 1.5 grams of metformin (Double-Crane Pharmaceutical, Inc., Beijing, China) per day, orally for two months. Of these twenty-six patients, 11 had hyperlipidemia, and four had hypertension. The remaining twenty-one patients (male/female, 11/10, age 49±10 y) were given 4 mg per day of rosiglitazone (Glaxowelcome, UK), orally for two months. Of these 21 patients, ten had hyperlipidemia and four had hypertension. Metformin and rosiglitazone served as reference controls as they are standard treatments for type 2 diabetes.
# Blood samples were taken prior to the commencement of therapy and after completion of the therapy.
# [3] = test system: rats; assay: Long term toxicity in rats; format: in vivo, rat; details: 300 mg/kg orally for 182 days
# Experimental: For long term toxicity determination, rats were administered 300 mg/kg of berberine orally for 182 days.
# [4] = test system: high fat high cholesterol (HFHC) diet rats; assay: Combination treatment with berberine and simvastatin in HFHC diet rats (Table 8); format: in vivo, rat; details: oral, after 25 days, daily dose berberine 100 mg/kg, simvastatin 25 mg/kg, combination 100 + 25, average ± standard error
# Experimental: Rats were fed a high fat high cholesterol (HFHC) diet for 10 days, and then divided into groups of seven. The rats were then administered berberine or simvastatin, or a combination of berberine and simvastatin orally for 25 days. After 25 days, serum cholesterol, triglyceride and LDL-c levels were measured. […] The combination of simvastatin, and berberine lowered the cholesterol, triglyceride and LDL-c levels further than either alone.
# [5] = in vitro; format: in vitro ADME; details: rabbit
# Experimental: The rabbit blood protein binding rate was measured by in vitro dialysis at a rate of 38±3% (XD±S, n=6).
# [6] = test system: ERK; assay: ERK activation in HepG2 or Bel-7402 cells (western blotting, phosphorylated ERK); format: cell-based, human; details: both hepatoma cell lines HepG2 and Bel-7402; 0.25-24 hours
# Experimental: HepG2 or Bel-7402 cells were treated with berberine for 0.25, 0.5, 0.75, 1, 2, 8, and 24 hours respectively and tested for levels of activated ERK by western blotting using antibodies that only recognize the activated (phosphorylated) ERK. […] The activation of berberine is also dose dependent (FIG. 14C).
# [7] = test system: rats; details: rat, in vivo
# [8] = test system: patients with metabolic syndrome; assay: Berberine in patients with metabolic syndrome (Table 10); format: in vivo, human; details: for Blood Pressure / Blood Cholesterol / Blood Insulin / Blood Triglyceride / FBG (fasting blood glucose): patients with metabolic syndrome (n = 28); for Blood Cholesterol / Blood Insulin / Blood Triglyceride / FBG (fasting blood glucose): means ± SEs
# From the text: Twenty-eight patients 28 (male/female, 17/11; age, 57±8 y) were diagnosed as having metabolic syndrome if they met three or more of the following criteria: fasting blood glucose>7 mmol/L, serum triglyceride>1.7 mmol/L, fasting blood insulin>13 mmcU/mL, blood pressure>135/85 and/or BMI>23. (Eckel, Lancet 365 (9468), 1415-28 (2005); Executive Summary, JAMA 285, 2486-2497 (2001); Balkau, Diabet. Med. 16, 442-443 (1999)) The patients were enrolled in this study at the Nanjing First Hospital, Nanjing, China. The patients were requested to end previous medications or therapies for at least two weeks prior to the beginning of the study.
# The patients were then given 1 gram of berberine per day, orally for two months. Blood samples were taken both before and after two months of berberine treatment. Fasting blood levels of glucose, LDL-c, cholesterol, HDL-c, triglyceride and blood insulin were measured using standard methods routinely applied in hospitals. Liver and kidney functions were also monitored in the patients.
# [9] = test system: LDLR mRNA; assay: LDLR mRNA levels in Bel-7402 cells (quantitative RT-PCR); format: cell-based, human
# Experimental: Bel-7402 cells were treated with 0, 0.5, 1, 2.5, 5, μg/ml of berberine or 2.5, 7.5 and 15 μg/ml of berberine sulfate. The cells were then centrifuged and washed and LDLR mRNA was extracted. LDLR mRNA levels were then measured using scan quantitative RT-PCR, (FIGS. 3 A and B).
# [10] = patients with type 2 diabetes, After treatment (2 months), oral: berberine 1 g/day, metformin 1.5 g/day, rosiglitazone 4 mg/day, Mean ± SE
# [11] = patients with type 2 diabetes, Before treatment (baseline), Mean ± SE
# [12] = type 2 diabetes patients, 1 g/day orally, 2 months
# [13] = After BBR treatment 1 g/day, Bid, 2 months
structure (smiles),measurement,setting,value
COc1ccc2cc3[n+](cc2c1OC)CCc1cc2c(cc1-3)OCO2 [berberine],increase in LDLR mRNA in hamster livers,[1],3.5 fold
same,increase in LDLR protein in hamster livers,[1],2.6 fold
same,serum insulin levels,"[2]; after treatment, normal range 2.5-13 mlU/L",decreased into the normal range
same,ALT after treatment,"[2]; human, in vivo",23±16
same,BUN after treatment,"[2]; human, in vivo",5.7±1.2
same,Cr after treatment,"[2]; human, in vivo",71±14
same,r-GT after treatment,"[2]; human, in vivo",31±23
same,HbA1c,[2]; [10],6.8 ± 0.2 %
same,Triglyceride,[2]; [10],1.4 ± 0.1 mmol/L
same,FBG (fasting blood glucose),[2]; [11],10.4 ± 0.4 mmol/L
same,HbA1c,[2]; [11],8.0 ± 0.3%
same,Triglyceride,[2]; [11],1.7 ± 0.1 mmol/L
same,reduction of serum cholesterol,[2]; type 2 diabetes patients of berberine group (50% also had hyperlipidemia),24%
same,lowering of fasting blood glucose,[2]; [12],26%
same,lowering of hemoglobin A1c (HbA1c),[2]; [12],18%
same,lowering of triglycerides,[2]; [12],18%
same,"long term toxicity: blood tests, blood biochemistry, urine analysis, histopathology",[3],No abnormalities were found
same,LDL-c,[4],1.2 ± 0.2 mmol/L
same,Total Cholesterol,[4],3.8 ± 0.5 mmol/L
same,Triglyceride,[4],2.1 ± 0.3 mmol/L
same,fraction unbound,[5],0.62
same,ERK activation (phosphorylated ERK),[6],rapidly activated ERK
same,birth defects,[7],No birth defects were evident
same,fasting blood glucose after treatment,"[8]; 1 gram per day orally, two months, Mean ±SE, before 10.7±0.56",8.0 ± 0.45 mmol/L
same,cholesterol after treatment,"[8]; 1 gram per day orally, two months, before 6.1±±0.11",4.7 ± 0.16 mmol/L
same,blood pressure after treatment,"[8]; 1 gram per day orally, two months, before 156/86",133/79
same,Blood Pressure,[8]; [13],133/79
same,Blood Cholesterol,[8]; [13],4.7 ± 0.16 mmol/L
same,Blood Insulin,[8]; [13],12.1 ± 1.35 mlU/L
same,Blood Triglyceride,[8]; [13],1.47 ± 0.14 mmol/L
same,FBG (fasting blood glucose),[8]; [13],8.0 ± 0.45 mmol/L
same,Blood Pressure,[8]; Before BBR treatment,156/86
same,Blood Cholesterol,[8]; Before BBR treatment,6.1 ± 0.11 mmol/L
same,Blood Insulin,[8]; Before BBR treatment,17 ± 2.15 mlU/L
same,Blood Triglyceride,[8]; Before BBR treatment,2.0 ± 0.22 mmol/L
same,FBG (fasting blood glucose),[8]; Before BBR treatment,10.7 ± 0.56 mmol/L
same,increase of LDLR mRNA expression,[9]; 5 μg/ml,2.3 fold
same,"LDLR mRNA expression, dose dependence","[9]; berberine 0.5-5 μg/ml, berberine sulfate 2.5, 7.5, 15 μg/ml",increased LDLR mRNA expression in a dose dependent fashion
